Values after ≈ are worked out from the molar mass of the structure shown. Ends that are not written are not given here. Peptide text beside a SMILES is read from it.
Experiments:
[1] = test system: normal mouse liver cell line (AML12 cell line); assay: Cytotoxicity, MTS-PMS assay; format: cell-based; details: normal cultured mouse hepatocytes
Protocol: (§1) The cytotoxicity effect of synthetic Sparamosin26-54 was evaluated using normal mouse liver cell line (AML12 cell line) and normal human liver cell line (L02 cell line).
(§2) (1) AML12 or L02 cells were harvested, and the cell concentration was adjusted to 10^5 cells/mL.
(§3) (2) 100 μL of AML12 or L02 cells were seeded in 96-wells and incubated at 37° C.
(§4) (3) Cells were treated with different concentrations of Sparamosin26-54 (0, 0.1, 1, 10, 100 μg/mL) for 24 h at 37° C.
(§5) (4) Cells were treated with 20 μL of MTS-PMS reagent for another 2 hours, and then the absorbance value of each well was measured at 492 nm (see FIG. 4).

[2] = test system: normal human liver cell line (L02 cell line); assay: Cytotoxicity, MTS-PMS assay; format: cell-based; details: normal cultured human hepatocytes
Protocol: as §1, §2, §3, §4, §5

[3] = test system: various Gram-positive bacteria and Gram-negative bacteria
[4] = test system: Corynebacterium glutamicum

Molecule	MBC: minimum bactericidal concentration (Staphylococcus aureus)	MIC: minimum inhibitory concentration (Staphylococcus aureus)	MBC: minimum bactericidal concentration (Pseudomonas fluorescens)	MIC: minimum inhibitory concentration (Pseudomonas fluorescens)	MBC: minimum bactericidal concentration (Bacillus cereus)	MIC: minimum inhibitory concentration (Bacillus cereus)	MBC: minimum bactericidal concentration (Escherichia coli)	MIC: minimum inhibitory concentration (Escherichia coli)	MBC: minimum bactericidal concentration (Pichia pastoris (GS115))	MIC: minimum inhibitory concentration (Pichia pastoris (GS115))	MBC: minimum bactericidal concentration (Cryptococcus neoformans)	MIC: minimum inhibitory concentration (Cryptococcus neoformans)	further results
CSCC[C@H](NC(=O)[C@H](CS)NC(=O)[C@@H](NC(=O)[C@H](Cc1ccccc1)NC(=O)[C@H](CC(N)=O)NC(=O)[C@H](CC(C)C)NC(=O)[C@H](CCCNC(=N)N)NC(=O)[C@H](CS)NC(=O)[C@H](CCCNC(=N)N)NC(=O)CNC(=O)[C@H](CC(C)C)NC(=O)[C@H](Cc1ccccc1)NC(=O)[C@H](CC(=O)O)NC(=O)[C@H](CCCNC(=N)N)NC(=O)[C@H](CCCCN)NC(=O)[C@H](Cc1ccc(O)cc1)NC(=O)[C@H](CS)NC(=O)[C@H](CCCCN)NC(=O)[C@H](CCCCN)NC(=O)[C@H](CCCNC(=N)N)NC(=O)[C@H](CS)NC(=O)[C@@H]1CCCN1C(=O)[C@H](CC(N)=O)NC(=O)[C@@H]1CCCN1C(=O)CNC(=O)[C@H](CC(C)C)NC(=O)CN)[C@@H](C)O)C(=O)N[C@@H](Cc1ccccc1)C(=O)NCC(=O)O [Sparamosin26-54] (H-GLGPNPCRKKCYKRDFLGRCRLNFTCMFG-OH; N-terminus and C-terminus assumed)	12 µM (≈ 40.6 µg/mL)	3 to 6 µM	6 µM (≈ 20.3 µg/mL)	3 to 6 µM	24 µM (≈ 81.2 µg/mL)	6 to 12 µM	12 µM (≈ 40.6 µg/mL)	6 to 12 µM	3 µM (≈ 10.1 µg/mL)	1.5 to 3 µM	12 µM (≈ 40.6 µg/mL)	1.5 to 3 µM	MBC: minimum bactericidal concentration (Aspergillus fumigatus): 24 µM (≈ 81.2 µg/mL); MIC: minimum inhibitory concentration (Aspergillus fumigatus): 12 to 24 µM; cytotoxic effect [1]: no cytotoxic effect; cytotoxic effect [2]: no cytotoxic effect; MIC value (various molds): 6 to 24 µM; MBC: minimum bactericidal concentration (Neurospora crasa): 48 µM (≈ 162 µg/mL); MBC: minimum bactericidal concentration (Candida albicans): >48 µM; MIC: minimum inhibitory concentration (Candida albicans): >48 µM; MBC: minimum bactericidal concentration (Aspergillus flavus): >48 µM; MIC: minimum inhibitory concentration (Aspergillus flavus): >48 µM; MBC: minimum bactericidal concentration (Pseudomonas aeruginosa): 12 µM (≈ 40.6 µg/mL); MIC: minimum inhibitory concentration (Pseudomonas aeruginosa): 6 to 12 µM; MBC: minimum bactericidal concentration (Aspergillus ochraceus): 48 µM (≈ 162 µg/mL); MIC: minimum inhibitory concentration (Aspergillus ochraceus): 3 to 6 µM; MBC: minimum bactericidal concentration (Aspergillus niger): 24 µM (≈ 81.2 µg/mL); MIC: minimum inhibitory concentration (Aspergillus niger): 6 to 12 µM; minimum inhibitory concentration (MIC) value [3]: 3 to 12 µM; MBC: minimum bactericidal concentration (Fusarium oxysporum): 12 µM (≈ 40.6 µg/mL); MBC: minimum bactericidal concentration [4]: 6 µM (≈ 20.3 µg/mL); MIC: minimum inhibitory concentration [4]: 1.5 to 3 µM
APVPDPDSEQSNISEVLKVQHSIFSGLGPNPCRKKCYKRDFLGRCRLNFTCMFG (cysteines drawn unpaired) [Sparamosin]	48 µM	12 to 24 µM	24 µM	12 to 24 µM	>48 µM	24 to 48 µM	24 µM	12 to 24 µM	24 µM	6 to 12 µM	>48 µM	>48 µM	–
